Test results published in patent publication US5464617A, “β-lactam compounds” (Hoffmann-La Roche Inc., priority 1994, dated 1995).
In brackets after ≈: the same amount, converted by molar mass. Structures can show the parent of a compound that is named as a salt.

Key:
[1] = system: Citrobacter freundii 1982; assay: MIC in vitro of a 1:4 combination of ceftriaxone with a compound of formula I (Test D); format: cell-based; settings: 1:4 combination of ceftriaxone with the compound; for MIC C. freundii 1982: Table 2; for MIC C. freundii 1982 (D): Table 4, test D
Description: The minimum inhibitory concentration in vitro ([…]) of a 1:4 combination of ceftriaxone with a compound of formula I against Citrobacter freundii 1982 was measured and compiled in Table 2 hereinafter.

E. coli 1346 = assay: Antibacterial activity of the products per se, serial dilution method in liquid medium (Test E); format: cell-based; settings: product per se; for MIC E. coli 1346: Table 3, liquid medium; for MIC E. coli 1346 (E): Table 4, test E
From the text: The antibacterial activity of the products per se is illustrated on the basis of Table 3 hereinafter, the minimum inhibitory concentration […] in vitro against E. coli 1346 being determined using the serial dilution method in liquid medium: […]

Structure (SMILES): Cn1nnnc1SCC1=C(C(=O)O)N2C(=O)[C@@H]3[C@H]2[C@H](C1)CN3C(=O)N[C@H]1CCNC1=O [18(c), (1aS,3aR,6bR)-2-[(S)-2-Oxo-pyrrolidin-3-ylcarbamoyl)-5-(1-methyl-1H-tetrazol-5-ylsulphanylmethyl]-1-oxo-1a,2,3,3a,4,6b-hexahydro-1H-2,6a-diazacyclobut[cd]indene-6-carboxylic acid sodium salt]
- MIC C. freundii 1982 [1]: 0.25 µg/mL
- MIC E. coli 1346 (E. coli 1346): 32 µg/mL

Structure (SMILES): CC(=O)N1C[C@H]2CC(COC(=O)NCC(N)=O)=C(C(=O)O)N3C(=O)[C@@H]1[C@@H]23 [96(a), (1aS,3aR,6bR)-2-Acetyl-5-carbamoylmethylcarbamoyloxymethyl-1-oxo-1a,2,3,3a,4,6b-hexahydro-1H-2,6a-diazacyclobut[cd]indene-6-carboxylic acid sodium salt]
- MIC C. freundii 1982 (D) [1]: 2 µg/mL
- MIC E. coli 1346 (E) (E. coli 1346): 8 µg/mL

Structure (SMILES): O=C(O)C1=C(CSc2ccncc2)C[C@@H]2CN(C(=O)NCc3ccc(O)cc3)[C@@H]3C(=O)N1[C@H]23 [18(i), (1aS,3aR,6bR)-2-(4-Hydroxy-benzylcarbamoyl)-1-oxo-5-(pyridin-4-ylsulphanylmethyl)-1a,2,3,3a,4,6b-hexahydro-1H-2,6a-diazacyclobut[cd]indene-6-carboxylic add sodium salt]
- MIC C. freundii 1982 (D) [1]: 4 µg/mL
- MIC E. coli 1346 (E) (E. coli 1346): 32 µg/mL

Structure (SMILES): CC(=O)N1C[C@H]2CC(COC(=O)NCc3ccncc3)=C(C(=O)O)N3C(=O)[C@@H]1[C@@H]23 [100(a), (1aS,3aR,6bR)-2-Acetyl-1-oxo-5-(pyridin-4-ylmethylcarbamoyloxymethyl)-1a,2,3,3a,4,6b-hexahydro-1H-2,6a-diazacyclobut[cd]indene-6-carboxylic acid sodium salt]
- MIC C. freundii 1982 (D) [1]: 1 µg/mL
- MIC E. coli 1346 (E) (E. coli 1346): 1 µg/mL

Structure (SMILES): N[C@@H](C(=O)N1C[C@H]2CC(COC(=O)NCc3ccncc3)=C(C(=O)O)N3C(=O)[C@@H]1[C@@H]23)c1ccccc1 [100(d), (1aS,3aR,6bR)-2-[(R)-2-phenyl-glycyl]-1-oxo-5-(pyridin-4-ylmethylcarbamoyloxymethyl)-1a,2,3,3a,4,6b-hexahydro-1H-2,6a-diazacyclobut[cd]indene-6-carboxylic acid hydrochloride]
- MIC C. freundii 1982 (D) [1]: 2 µg/mL
- MIC E. coli 1346 (E) (E. coli 1346): 0.5 µg/mL

Structure (SMILES): CC(=O)N1C[C@H]2CC(CSc3ncccn3)=C(C(=O)O)N3C(=O)[C@@H]1[C@@H]23 [72(a), (1aS,3aR,6bR)-2-Acetyl-1-oxo-5-(pyrimidin-2-ylsulphanylmethyl)-1a,2,3,3a,4,6b-hexahydro-1H-2,6a-diazacyclobut[cd]indene-6-carboxylic acid sodium salt]
- MIC C. freundii 1982 (D) [1]: 4 µg/mL
- MIC E. coli 1346 (E) (E. coli 1346): 2 µg/mL

Structure (SMILES): O=C(O)C1=C(CSc2nc[nH]n2)C[C@@H]2CN[C@@H]3C(=O)N1[C@H]23 [Example 75, (1aS,3aR,6 bR)-1-Oxo-5-(1H-1,2,4-triazol-3-ylsulphanylmethyl)-1a,2,3,3a,4,6b-hexahydro-1H-2,6a-diazacyclobut[cd]indene-6-carboxylic acid trifluoroacetate]
- MIC C. freundii 1982 (D) [1]: 1 µg/mL
- MIC E. coli 1346 (E) (E. coli 1346): 4 µg/mL

Structure (SMILES): CC(=O)N1C[C@H]2CC(Sc3nnnn3C)=C(C(=O)O)N3C(=O)[C@@H]1[C@@H]23 [Example 3(aa), (1aS,3aR,6bR)-2-Acetyl-5-(1-methyl-1H-tetrazol-5-ylsulphanyl)-1-oxo-1a,2,3,3a,4,6b-hexahydro-1H-2,6a-diazacyclobut[cd]indene-6-carboxylic acid sodium salt]
- MIC C. freundii 1982 (D) [1]: 2 µg/mL
- MIC E. coli 1346 (E) (E. coli 1346): 8 µg/mL

Structure (SMILES): CC(=O)NCC1=C(C(=O)O)N2C(=O)[C@H]3NC[C@@H](C1)[C@H]32 [Example 84, (1aS,3aR, 6bR)-5-Acetylaminomethyl-1-oxo-l a,2,3,3a,4,6b-hexahydro-1H-2,6a-diazacyclobut[cd]indene-6-carboxylic acid trifluoroacetate]
- MIC C. freundii 1982 (D) [1]: 4 µg/mL
- MIC E. coli 1346 (E) (E. coli 1346): 2 µg/mL

Structure (SMILES): Cc1nnc(SCC2=C(C(=O)O)N3C(=O)[C@@H]4[C@H]3[C@H](C2)CN4C=O)s1 [65(e), (1aS,3aR,6bR)-2-Formyl-5-(5-methyl-1,3,4-thiadiazol-2-ylsulphanylmethyl)-1-oxo-1a,2,3,3a,4,6b-hexahydro-1H-2,6a-diazacyclobut[cd]indene-6-carboxylicacid sodium salt]
- MIC C. freundii 1982 (D) [1]: 0.5 µg/mL
- MIC E. coli 1346 (E) (E. coli 1346): 1 µg/mL

Structure (SMILES): Cc1nnc(SCC2=C(C(=O)O)N3C(=O)[C@@H]4[C@H]3[C@@H](CN4C(=O)Nc3ccc(C(N)=O)cc3)O2)s1 [31(b), (1aS,3aR,6bS)-2-(4-Carbamoyl-phenylcarbamoyl)-5-(S-methyl-1,3,4-thiadiazol-2-ylsulphanylmethyl)-1-oxo-1,1a,2,3,3a,6b-hexahydro-4-oxa-2,6a-diazacyclobut[cd]indene-6-carboxylic acid sodium salt]
- MIC C. freundii 1982 (D) [1]: 0.2 µg/mL
- MIC E. coli 1346 (E) (E. coli 1346): 8 µg/mL

Structure (SMILES): NC(=O)OCC1=C(C(=O)O)N2C(=O)[C@@H]3[C@H]2[C@H](C1)CN3CC(=O)Nc1ccc(O)cc1 [Example 59(a), (1aS,3aR,6bR)-5-Carbamoyloxymethyl-2-(4-hydroxyphenylcarbamoylmethyl)-1-oxo-I a,2,3,3a,4,6b-hexahydro-1H-2,6a-diazacyclobut[cd]indene-6-carboxylic acid sodium salt]
- MIC C. freundii 1982 (D) [1]: 1 µg/mL
- MIC E. coli 1346 (E) (E. coli 1346): 2 µg/mL

Structure (SMILES): Cn1c(O)nnc1SCC1=C(C(=O)O)N2C(=O)[C@H]3NC[C@@H](S1)[C@H]32 [40(d), (1aS,3aR,6bS)-5-(5-Hydroxy-4-methyl-4H-[1,2,4]-triazol-3-ylsulphanylmethyl)-1-oxo-4-thia-1,1a,2,3,3a,6b-hexahydro-2,6a-diazacyclobut[cd]indene-6-carboxylic acid]
- MIC C. freundii 1982 (D) [1]: 2 µg/mL
- MIC E. coli 1346 (E) (E. coli 1346): 8 µg/mL (≈ 22.5 µM)

Structure (SMILES): CC(=O)N1C[C@H]2CC(SCC(N)=O)=C(C(=O)O)N3C(=O)[C@@H]1[C@@H]23 [3(ak), (1 aS,3aR,6bR)-2-Acetyl-5-carbamoylmethylsulphanyl-1-oxo-1a,2,3,3a,4,6b-hexahydro-1H-2,6a-diazacyclobut[cd]indene-6-carboxylic acid sodium salt]
- MIC C. freundii 1982 (D) [1]: 4 µg/mL
- MIC E. coli 1346 (E) (E. coli 1346): 16 µg/mL

Structure (SMILES): C[n+]1ccc(SCC2=C(C(=O)[O-])N3C(=O)[C@H]4NC[C@@H](C2)[C@H]43)cc1 [Example 20, (1aS,3aR,6bR)-5-(1-Methyl-pyridin-4-yliosulphanylmethyl)-1-oxo-1a,2,3,3a,4,6b-hexahydro-1H-2,6a-diazacyclobut[cd]indene-6-carboxylate trifluoroacetate]
- MIC C. freundii 1982 [1]: 1 µg/mL
- MIC E. coli 1346 (E. coli 1346): ≤ 0.5 µg/mL

Structure (SMILES): Cc1nnc(SCC2=C(C(=O)O)N3C(=O)[C@@H]4[C@H]3[C@H](C2)CN4C(=O)CSc2nnc(N)s2)s1 [65(f), (1aS,3aR,6bR)-2-(2-Amino-1,3,4-thiadiazol-5-ylsulphanylacetyl)-5-(5-methyl-1,3,4-thiadiazol-2-ylsulphanylmethyl)-1-oxo-1a,2,3,3a,4,6b-hexahydro-1H-2,6a-diazacyclobut[cd]indene-6-carboxylic acid sodium salt]
- MIC C. freundii 1982 (D) [1]: 0.5 µg/mL
- MIC E. coli 1346 (E) (E. coli 1346): 2 µg/mL

Structure (SMILES): CCN1C[C@H]2CC(COC(N)=O)=C(C(=O)O)N3C(=O)[C@@H]1[C@@H]23 [59(c), (1aS,3aR,6bR)-5-Carbamoyloxylmethyl-2-ethyl-1-oxo-1a,2,3,3a,4,6b-hexahydro-1H-2,6a-diazacyclobut[cd]indene-6-carboxylic acid sodium salt]
- MIC C. freundii 1982 (D) [1]: 2 µg/mL
- MIC E. coli 1346 (E) (E. coli 1346): 8 µg/mL

Structure (SMILES): CS(=O)(=O)OC1=C(C(=O)O)N2C(=O)[C@@H]3[C@H]2[C@H](C1)CN3C(=O)Nc1ccc(C(N)=O)cc1 [9(b), (1aS,3aR,6bR)-2-(4-Carbamoyl-phenylcarbamoyl)-5-methylsulphonyloxy-1-oxo-1a, 2,3,3a,4,6b-hexahydro-1H-2,6a-diazacyclobut[cd]indene-6-carboxylic acid sodium salt]
- MIC C. freundii 1982 [1]: 0.25 µg/mL
- MIC E. coli 1346 (E. coli 1346): 0.5 µg/mL

Structure (SMILES): CC(=O)N1C[C@H]2OC(CSc3nnnn3CC(=O)NOC(c3ccccc3)(c3ccccc3)c3ccccc3)=C(C(=O)O)N3C(=O)[C@@H]1[C@@H]23 [32(h), (1aS,3aR,6bS)-2-Acetyl-1-oxo-5-(1-(trityloxycarbamoylmethyl)-1H-tetrazol-5-ylsulphanylmethyl)-1,1a,2,3,3a,6b-hexahydro-4-oxa-2,6 a-diazacyclobut[cd]indene-6-carboxylic acid sodium salt]
- MIC C. freundii 1982 (D) [1]: 64 µg/mL
- MIC E. coli 1346 (E) (E. coli 1346): > 32 µg/mL

Structure (SMILES): CN1CCN(C(=O)OCC2=C(C(=O)O)N3C(=O)[C@H]4NC[C@@H](C2)[C@H]43)CC1 [Example 103, (1aS,3aR,6bR)-5-(4-Methyl-piperazin-1-ylcarbonyloxymethyl)-1-oxo-1a,2,3,3a,4,6b-hexahydro-1H-2,6a-diazacydobut[cd]indene-6-carboxylic acid trifluoroacetate]
- MIC C. freundii 1982 (D) [1]: 2 µg/mL
- MIC E. coli 1346 (E) (E. coli 1346): 1 µg/mL

Structure (SMILES): CC(=O)N1C[C@H]2CC(Sc3ccncc3)=C(C(=O)O)N3C(=O)[C@@H]1[C@@H]23 [Example 3(ah), (1aS,3aR,6bR)-2-Acetyl-1-oxo-5-(pyridin-4-ylsulphanyl)-1a,2,3,3a,4,6b-hexahydro-1H-2,6a-diazacyclobut[cd]indene-6-carboxylic acid sodium salt]
- MIC C. freundii 1982 (D) [1]: 2 µg/mL
- MIC E. coli 1346 (E) (E. coli 1346): 8 µg/mL
